Laboratory results published in US20260139017A1, “COMPOSITIONS AND METHODS USING REELIN IN ALZHEIMER'S DISEASE” (The General Hospital Corporation, priority 2022, published 2026).
“Also recorded” adds a separate entry of the source.

Key:
APOER2 = biological target: T1, APOER2 (Homo sapiens, UniProt Q14114); experiment: ELISA cell-free binding of RELN variants to ApoEr2
T1 construct: purchased OnGene (so in the source)
T1 sequence (Q14114 33-963): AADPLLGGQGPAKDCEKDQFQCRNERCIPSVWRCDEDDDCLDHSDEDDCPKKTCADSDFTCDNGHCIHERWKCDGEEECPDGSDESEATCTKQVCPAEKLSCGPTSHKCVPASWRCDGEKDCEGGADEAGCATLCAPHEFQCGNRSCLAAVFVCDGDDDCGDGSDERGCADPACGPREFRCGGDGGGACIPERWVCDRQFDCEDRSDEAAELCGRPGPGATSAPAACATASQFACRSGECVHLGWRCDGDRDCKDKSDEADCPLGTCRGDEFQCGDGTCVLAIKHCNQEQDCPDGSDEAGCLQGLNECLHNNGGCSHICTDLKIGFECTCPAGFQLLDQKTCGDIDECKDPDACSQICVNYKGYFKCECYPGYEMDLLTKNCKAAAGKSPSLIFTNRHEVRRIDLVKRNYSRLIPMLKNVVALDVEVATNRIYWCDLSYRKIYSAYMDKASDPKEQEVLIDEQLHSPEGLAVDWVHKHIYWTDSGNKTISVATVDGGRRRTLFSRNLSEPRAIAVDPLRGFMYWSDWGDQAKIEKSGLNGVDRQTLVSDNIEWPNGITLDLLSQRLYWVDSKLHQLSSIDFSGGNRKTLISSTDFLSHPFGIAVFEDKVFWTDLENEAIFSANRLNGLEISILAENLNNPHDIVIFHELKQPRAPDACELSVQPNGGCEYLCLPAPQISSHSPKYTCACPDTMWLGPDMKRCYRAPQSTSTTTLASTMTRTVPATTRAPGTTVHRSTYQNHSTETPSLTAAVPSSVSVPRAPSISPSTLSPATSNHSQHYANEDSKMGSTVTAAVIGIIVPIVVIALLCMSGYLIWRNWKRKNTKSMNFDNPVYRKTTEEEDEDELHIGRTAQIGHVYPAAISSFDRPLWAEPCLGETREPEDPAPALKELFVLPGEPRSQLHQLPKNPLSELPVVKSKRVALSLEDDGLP
Description: (§1) Enzyme-linked immunosorbent assay (ELISA) was used to quantify changes in binding of RELN variants (media-derived full-length or CTR-RELN) to either VLDLr or ApoEr2 following an optimized version of a previously published protocol (6). Briefly, ELISA strips (DY008, R&D Systems) were coated with one ng/μL (100 μL/well) of VLDLr (8444-VL, R&D) or ApoEr2 (TP320903, OnGene) receptors diluted in 25 mM Tris HCl, 140 mM NaCl, […], two mM CaCl2), pH 7.4 (TBS-C buffer). After 18 h at four ° C. incubation, plates were blocked one h with three % BSA (22070008-6, Bioworld), 0.05% Tween-20 (Sigma Aldrich) TBS-C buffer. We assessed binding via incubation with 100 μL/well of serial dilutions of recombinant RELN protein (Ser1221-Gln2666, 8546-MR-050, R&D) or RELN variants in TBS-C buffer for one hour at room temperature. For detection, we used goat anti-mouse RELN primary antibody (LS-C793521-100, LS-Bio, 1:2,000, 100 μL/well) as primary antibody for one h at R.T. and (1:10,000; 100 μL/well, donkey anti-goat IgG H&L, HRP, ab6885, Abcam) as secondary antibody for 30 min. at R.T. Between each of the previous steps, plates were washed four times with TBS-C buffer (200 μL/well). Plates were washed three times prior to initiating the colorimetric reaction (DY008, R&D Systems). Stop solution (50 μL/well, DY008, R&D Systems) was added upon five min. incubation and the absorbance of the samples was measured at 450 nm using the Synergy 2 microplate reader (BioTek Instruments). Processing and analysis of the data was done using Gen5 1.11 software and GraphPad Prism, respectively.

VLDLr = biological target: T2, VLDLr (Homo sapiens, UniProt P98155); experiment: ELISA cell-free binding of RELN variants to VLDLr
T2 construct: purchased R&D 8444-VL
Description: as §1

Aβ42 = biological target: T3, Aβ42 (Homo sapiens, UniProt P05067); experiment: Thioflavin T (ThT) Aβ aggregation assay; type: biochemical; details: Aβ42 55 μM, 10 μM peptide; vs Aβ alone
T3 construct: SensoLyte ThT O-Amyloid (1-42) Aggregation kit
Description: Therefore, the ThT assay can be used to quantify AB aggregation using previously developed methods (40).
We incubated CTR-RELN with Aβ and monitored aggregation using a ThioflavinT fluorescence assay normalized to the maximum ThT emission of Aβ only. We also assayed Aβ in the presence of morin, a known inhibitor (41), as a […]. Long and short WT and H3447R RELN CTR peptides were included to better understand the potential role of the H3447R mutation in amyloid pathology (FIGS. 14 and 15. Negative controls included long and short RELN CTR peptides with neutrally charged AAs (histidines) in place of basic AAs in the alpha- and beta-GAG binding sites.
A Thioflavin T (ThT) assay was also performed using synthetic Reelin peptides to assess the differential effects of these proteins on Aβ42 aggregation in vitro using Thioflavin T (SensoLyte ThT O-Amyloid (1-42) Aggregation kit, catalog no. ΔS-72214). Aβ42 was added to a final concentration of 55 μM in solutions of 10 μM of Reelin peptide variants in a transparent, no-binding 96-well plate. Samples were then mixed with 2 mM Thioflavin T dye and fluorescence was read at excitation wavelength/emission wavelength (Ex/Em)=440/484 nm at intermittent time intervals over 2 h. The plate was kept at 37° C. with 15 s shaking between reads. […] In general, it appears that the RELN Cterm domain is highly unstructured. […] If the mini-RELN includes the C-term domain only without a receptor binding domain then the protection will not involve signaling, but will still involve direct interactions with tau. If the mini-RELN includes the C-term domain and the receptor binding domain, it will have at least two protective mechanisms, namely RELN signaling and direct interactions with tau.

[1] = Surface plasmon resonance (SPR) binding of CTR-RELN peptides to heparin-coated chip; details: SPR kinetic constants
Description: Surface plasmon resonance assay (SPR) was used for performing binding kinetics using a Biacore 3000 Instrument (GE Healthcare) at 25° C. following previously published protocols (7 24) as fee-for-service by Precision Antibody (Maryland, USA). Biotin-labeled heparin (B9806, Sigma Aldrich) was covalently linked to streptavidin-coated chip and unoccupied sites were blocked with biocytin. Antigen was flowed over the chip using a range of single analyte concentrations prepared in DPBS buffer and using a flow rate of 30 μL/min. Binding of antigen to the ligand was monitored in real time to obtain on (ka) and off (kd) rates. The equilibrium constant (KD) was calculated from the observed ka and kd. Accuracy of the SPR analysis was determined via Chi square (χ2) analysis as described in the statistical analysis section. We included in the analyses the WT and H3447R peptides and peptides with the hypothetical H3447D change ([…])(SEQ ID NO:57) and the H3447K change ([…])(SEQ ID NO:58), also produced and purified by Innovagen (Sweden).
Surface plasmon resonance assay (SPR) was used for performing binding kinetics using a Biacore 3000 Instrument (GE Healthcare) at 25° C. following previously published protocols 34 24 fee-for-service by Precision Antibody (Maryland, USA). Heparin was covalently linked to streptavidin coated chip at 13 response units (RU) concentration and unoccupied sites were blocked with biocytin. Antigen was flowed over the chip using a range of single analyte concentrations prepared in DPBS buffer and using a flow rate of 30 μL/min. Binding of antigen to the ligand was monitored in real time to obtain on (ka) and off (kd) rates. The equilibrium constant (KD) was calculated from the observed ka and kd. Accuracy of the SPR analysis was determined via Chi square (2) analysis as described in the statistical analysis section.

[2] = Heparin HPLC, peak retention time in KCl elution; type: binding; details: isocratic 1M KCl elution, long and short peptides
Description: […] 50 μl of 0.3 μg/μL uncleaved or cleaved WT Reelin peptide was used at 0.3 ml/min in 0.15MKCl, 10 mM PBS. 0-13.5 min: 0.15M KCl to load sample, 13.5-14.5 min: ramp to 0.5M KCl, 14.5-24.5 min: 0.5-1M KCl gradient (ramp), 24.5-45 min: 1M KCl (isocratic elution), 45-55 min: 1M KCl at 0.6 ml/min (wash), 55.0-56.0 min: ramp to 0.15M KCl at 0.3 ml/min, 56.0-59.0 min: 0.15M KCl (reset column). Fluorescence Intensities were measured at an excitation wavelength of 260 nm and emission wavelength of 290 nm, based on fluorescence properties of aromatic amino acids. To assess fluorescence properties of peptides, 15 ul of ˜0.6 ug/mL of peptide was diluted in 500 μL of 0.15MKCl, 10 mM PBS, and peak excitation and emission of peptides was calculated from the 2D graphical data.
The column chromatography method was adapted from previous research from the laboratory (2). Based on the column chromatography data, the initial protocol used a NaCl gradient from 0-1 M and a 5M salt wash to reset the HPLC column. However, the high salt gradient was corrosive to the HPLC machine parts. Therefore, KCl was considered because the […]. A lower molar concentration of a buffer with KCl could be used to disrupt heparin—Reelin CTR interactions compared to NaCl to help keep the HPLC pumps free of residual salts and potential corrosion. Since a lower concentration of salt was used, the amount of time needed at an […] hold of 1M KCl was extended until the peptide signal could not be detected before the column was equilibrated for the next sample.

NRP1 = biological target: T4, NRP1 (Homo sapiens, UniProt O14786); experiment: Bio-layer interferometry (BLI) of CTR-RELN-NRP-1 interactions; type: binding
T4 construct: purchased R&D 3870-N1-025
T4 sequence (O14786 22-644 isoform O14786-2 limits assumed): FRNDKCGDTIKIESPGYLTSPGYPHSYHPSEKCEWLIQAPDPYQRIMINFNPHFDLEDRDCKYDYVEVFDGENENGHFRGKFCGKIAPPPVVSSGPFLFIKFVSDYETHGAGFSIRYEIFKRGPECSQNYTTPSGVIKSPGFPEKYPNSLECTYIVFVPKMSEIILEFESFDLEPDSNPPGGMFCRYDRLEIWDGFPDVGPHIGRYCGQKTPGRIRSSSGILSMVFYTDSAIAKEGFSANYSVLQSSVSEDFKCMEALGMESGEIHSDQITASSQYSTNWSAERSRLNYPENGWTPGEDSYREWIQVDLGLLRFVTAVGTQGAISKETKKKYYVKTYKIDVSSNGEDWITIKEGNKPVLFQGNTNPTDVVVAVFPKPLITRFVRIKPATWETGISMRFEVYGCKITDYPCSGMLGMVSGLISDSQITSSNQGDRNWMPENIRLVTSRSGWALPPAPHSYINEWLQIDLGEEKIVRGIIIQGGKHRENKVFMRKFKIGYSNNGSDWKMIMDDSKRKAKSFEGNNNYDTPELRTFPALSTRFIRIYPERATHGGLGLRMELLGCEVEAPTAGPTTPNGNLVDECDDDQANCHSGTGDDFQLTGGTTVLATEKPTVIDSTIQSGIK
Description: (§2) Bio-layer interferometry (BLI) was additionally used to assess NRP1-protein kinetics at 30° C. and 1000 rpm agitation. 1 mg/mL NRP1 (R&D 3870-N1-025) was biotinylated at a 1:2 molar ratio, desalted, and immobilized on the SA biosensor tip (Pall ForteBio) surface. This was followed by 1) 180 seconds baseline buffer diluent, 2) loading of the ligand (NRP1), 3) 180 seconds baseline buffer diluent, 4) 240 seconds association (analyte), and 5) 300 seconds disassociation in assay buffer. Assay buffer: SD Buffer (pH7.4 PBS, 0.05% tween20, 0.01% BSA).
The experimental data were fit with the 1:1 binding model and analyzed with global fitting using Octet Data Analysis software to calculate KD.
as §2, with “was” for “was additionally”, “agitation using previously published methods.” for “agitation.”

T3 sequence (P05067 672-713 limits assumed): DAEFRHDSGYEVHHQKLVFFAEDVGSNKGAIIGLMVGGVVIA

Substance | Aβ aggregation (ThT fluorescence) (Aβ42) | heparin affinity/interaction relative to WT, in words [1] | peak retention time on heparin HPLC [2] | further results
RELN WT: full-length murine recombinant RELN, wild type |  |  |  | binding to APOER2 (APOER2): did not differ; binding to VLDLr (VLDLr): did not differ
RKQNYMMNFSRQHGLRDFYNRRRRSLRRYP [H3447D long] | similarly decrease aggregation | reduced heparin interactions | significantly less interaction; also recorded: earlier peak retention time | 
RKQNYMMNFSRQHGLRKFYNRRRRSLRRYP [H3447K long] | similarly decrease aggregation | minimal effects | increased later peak retention times | 
Vascular endothelial growth factor [VEGF, reference compound] |  |  |  | ka (NRP1; immobilized biotinylated NRP1): 272000 M⁻¹ s⁻¹; kd (NRP1; immobilized biotinylated NRP1): 0.0015 s⁻¹; Kd (NRP1; immobilized biotinylated NRP1, 30° C., 1:1 model): 5.53 nM
